Experiment [1] has as its target Proto-oncogene tyrosine-protein kinase Src (Homo sapiens, UniProt P12931). The experiment in a line: Inhibition of full length His-tagged human recombinant cSRC expressed in baculovirus using Fluorescein-Poly GT as substrate at 100 nM.
The next experiment concerns HepG2. Nature of the experiment: Antiproliferative activity against human HepG2 cells after 72 hrs by MTT assay. The format is functional, cell-based. Particulars: HepG2, 72 h. (Tetrazolium assays rely on reduction of a dye to a coloured formazan, in cell work by metabolically active cells.)
Experiment [2] concerns the target Fibroblast growth factor receptor 2 (Homo sapiens) (UniProt P21802). Nature of the experiment: Inhibition of His-tagged human recombinant FGFR2 (403 to 822 residues) expressed in baculovirus using Fluorescein-Poly GT as substrate at 100 nM.
In experiment [3] the target is Vascular endothelial growth factor receptor 2 (Homo sapiens) (UniProt P35968). Nature of the experiment: Inhibition of full length His-tagged human recombinant VEGFR2 expressed in baculovirus using Fluorescein-Poly GT as substrate at 100 nM.
Vascular endothelial growth factor receptor 2 (Homo sapiens), sequence (P35968 whole entry, the tested form may be a part): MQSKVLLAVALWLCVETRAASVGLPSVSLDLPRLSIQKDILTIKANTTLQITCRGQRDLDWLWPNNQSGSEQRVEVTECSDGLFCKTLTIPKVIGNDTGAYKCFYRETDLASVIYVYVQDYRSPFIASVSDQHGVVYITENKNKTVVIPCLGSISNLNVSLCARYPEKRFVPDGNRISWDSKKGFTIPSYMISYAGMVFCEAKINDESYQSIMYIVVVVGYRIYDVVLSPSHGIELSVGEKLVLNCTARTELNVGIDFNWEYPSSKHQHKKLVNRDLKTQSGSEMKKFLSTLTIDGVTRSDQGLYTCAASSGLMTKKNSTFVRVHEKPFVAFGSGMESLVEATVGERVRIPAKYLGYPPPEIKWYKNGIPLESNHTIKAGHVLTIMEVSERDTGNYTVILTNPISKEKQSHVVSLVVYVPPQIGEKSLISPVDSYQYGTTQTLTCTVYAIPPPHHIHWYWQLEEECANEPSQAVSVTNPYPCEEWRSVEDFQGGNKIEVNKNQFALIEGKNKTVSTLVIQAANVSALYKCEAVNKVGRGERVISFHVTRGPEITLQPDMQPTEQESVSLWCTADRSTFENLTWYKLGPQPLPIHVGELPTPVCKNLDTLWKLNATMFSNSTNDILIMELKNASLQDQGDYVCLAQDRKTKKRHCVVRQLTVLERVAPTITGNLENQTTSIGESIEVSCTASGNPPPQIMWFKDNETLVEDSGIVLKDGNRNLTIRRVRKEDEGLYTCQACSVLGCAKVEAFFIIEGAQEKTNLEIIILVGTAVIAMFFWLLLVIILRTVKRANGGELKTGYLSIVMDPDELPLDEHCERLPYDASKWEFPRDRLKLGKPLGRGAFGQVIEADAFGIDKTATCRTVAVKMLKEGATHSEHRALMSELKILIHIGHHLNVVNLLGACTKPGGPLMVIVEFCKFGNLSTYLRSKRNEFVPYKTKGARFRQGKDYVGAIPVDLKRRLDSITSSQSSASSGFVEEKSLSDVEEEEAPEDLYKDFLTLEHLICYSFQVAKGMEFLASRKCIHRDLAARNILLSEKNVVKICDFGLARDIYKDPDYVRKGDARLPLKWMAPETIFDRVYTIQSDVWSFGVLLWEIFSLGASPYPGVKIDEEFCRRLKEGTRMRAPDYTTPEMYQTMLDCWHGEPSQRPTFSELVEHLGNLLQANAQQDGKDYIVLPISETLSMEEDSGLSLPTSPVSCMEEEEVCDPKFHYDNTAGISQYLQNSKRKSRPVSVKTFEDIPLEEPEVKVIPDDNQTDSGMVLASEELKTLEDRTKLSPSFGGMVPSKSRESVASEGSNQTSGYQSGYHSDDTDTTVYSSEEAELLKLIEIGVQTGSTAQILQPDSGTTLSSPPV
Experiment [4] has as its target Epidermal growth factor receptor (Homo sapiens, UniProt P00533). Nature of the experiment: Inhibition of GST-tagged human recombinant EGFR (668 to1210 residues) expressed in baculovirus using Fluorescein-Poly GT as substrate at 100 nM.
Experiment [5] has as its target Serine/threonine-protein kinase B-raf (Homo sapiens) (UniProt P15056). Nature of the experiment: Inhibition of full length GST-tagged human recombinant BRAF expressed in baculovirus using Fluorescein-MAP2K1 as substrate at 100 nM.
In experiment [6] the target is Platelet-derived growth factor receptor alpha (Homo sapiens, UniProt P16234). The experiment in a line: Inhibition of full length GST-tagged human recombinant PDGFRalpha expressed in baculovirus using Fluorescein-Poly GT as substrate at 100 nM.
Platelet-derived growth factor receptor alpha, sequence (P16234 whole entry): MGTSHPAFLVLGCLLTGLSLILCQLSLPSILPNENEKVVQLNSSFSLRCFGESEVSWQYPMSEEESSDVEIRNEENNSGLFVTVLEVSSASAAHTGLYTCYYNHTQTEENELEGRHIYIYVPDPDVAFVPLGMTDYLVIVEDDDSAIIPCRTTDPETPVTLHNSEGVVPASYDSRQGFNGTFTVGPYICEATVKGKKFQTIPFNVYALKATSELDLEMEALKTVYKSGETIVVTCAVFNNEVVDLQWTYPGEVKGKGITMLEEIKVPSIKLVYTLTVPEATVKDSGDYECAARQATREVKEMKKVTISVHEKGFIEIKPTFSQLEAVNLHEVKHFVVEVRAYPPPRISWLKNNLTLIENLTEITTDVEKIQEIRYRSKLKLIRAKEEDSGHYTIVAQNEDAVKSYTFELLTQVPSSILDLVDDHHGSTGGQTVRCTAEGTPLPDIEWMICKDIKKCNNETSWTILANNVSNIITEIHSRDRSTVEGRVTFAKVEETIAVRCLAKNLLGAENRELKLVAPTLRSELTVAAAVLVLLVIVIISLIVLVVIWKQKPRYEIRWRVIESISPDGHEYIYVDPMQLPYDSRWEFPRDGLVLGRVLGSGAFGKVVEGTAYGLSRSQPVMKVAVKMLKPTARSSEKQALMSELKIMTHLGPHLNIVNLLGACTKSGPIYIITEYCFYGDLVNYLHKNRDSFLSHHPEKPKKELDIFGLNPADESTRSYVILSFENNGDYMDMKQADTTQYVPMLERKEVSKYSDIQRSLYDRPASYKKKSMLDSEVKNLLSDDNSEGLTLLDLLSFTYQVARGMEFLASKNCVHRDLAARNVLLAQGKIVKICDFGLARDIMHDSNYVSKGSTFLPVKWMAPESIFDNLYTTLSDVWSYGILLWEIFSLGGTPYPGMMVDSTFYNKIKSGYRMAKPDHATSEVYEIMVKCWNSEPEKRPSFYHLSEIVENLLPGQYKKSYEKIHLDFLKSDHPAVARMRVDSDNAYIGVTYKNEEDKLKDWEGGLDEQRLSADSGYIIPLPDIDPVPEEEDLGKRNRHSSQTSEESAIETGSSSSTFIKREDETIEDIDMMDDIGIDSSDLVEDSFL
In the next experiment the test system is HUVEC. Nature of the experiment: Antiangiogenic activity in HUVEC after 72 hrs by MTT assay. It is filed as functional, cell-based. Particulars: Homo sapiens.

Epidermal growth factor receptor, sequence (P00533 whole entry, the tested form may be a part): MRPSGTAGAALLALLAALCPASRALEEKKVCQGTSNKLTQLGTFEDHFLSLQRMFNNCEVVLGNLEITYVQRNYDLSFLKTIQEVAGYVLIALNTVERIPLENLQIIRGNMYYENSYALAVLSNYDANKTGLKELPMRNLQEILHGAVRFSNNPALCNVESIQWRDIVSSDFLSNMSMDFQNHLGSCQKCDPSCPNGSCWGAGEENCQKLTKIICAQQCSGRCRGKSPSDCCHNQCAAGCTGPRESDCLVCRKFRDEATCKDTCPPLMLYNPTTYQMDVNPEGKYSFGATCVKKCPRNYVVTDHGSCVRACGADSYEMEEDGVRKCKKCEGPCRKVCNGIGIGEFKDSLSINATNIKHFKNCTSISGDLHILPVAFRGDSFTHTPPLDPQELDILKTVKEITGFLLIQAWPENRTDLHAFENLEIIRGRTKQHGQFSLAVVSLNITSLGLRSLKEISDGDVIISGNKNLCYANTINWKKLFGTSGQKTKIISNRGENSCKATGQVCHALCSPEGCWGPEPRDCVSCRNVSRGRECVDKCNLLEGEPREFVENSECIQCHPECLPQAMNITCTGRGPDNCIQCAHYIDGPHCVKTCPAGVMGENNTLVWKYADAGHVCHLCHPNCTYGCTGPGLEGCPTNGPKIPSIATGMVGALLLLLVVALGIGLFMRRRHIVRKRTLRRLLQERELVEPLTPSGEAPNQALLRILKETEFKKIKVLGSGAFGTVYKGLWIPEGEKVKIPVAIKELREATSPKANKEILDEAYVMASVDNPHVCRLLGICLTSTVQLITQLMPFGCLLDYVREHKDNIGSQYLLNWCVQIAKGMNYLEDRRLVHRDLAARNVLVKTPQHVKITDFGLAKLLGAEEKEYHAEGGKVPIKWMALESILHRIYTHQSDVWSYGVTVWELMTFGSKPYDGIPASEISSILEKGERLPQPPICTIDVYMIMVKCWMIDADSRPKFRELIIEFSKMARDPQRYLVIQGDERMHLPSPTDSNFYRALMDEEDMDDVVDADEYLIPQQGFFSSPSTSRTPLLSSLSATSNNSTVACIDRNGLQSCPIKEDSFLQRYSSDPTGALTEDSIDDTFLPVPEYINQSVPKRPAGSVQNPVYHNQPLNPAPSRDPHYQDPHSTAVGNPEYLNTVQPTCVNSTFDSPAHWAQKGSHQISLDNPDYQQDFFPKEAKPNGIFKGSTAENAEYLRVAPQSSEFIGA
Proto-oncogene tyrosine-protein kinase Src, sequence (P12931 2-536 limits assumed): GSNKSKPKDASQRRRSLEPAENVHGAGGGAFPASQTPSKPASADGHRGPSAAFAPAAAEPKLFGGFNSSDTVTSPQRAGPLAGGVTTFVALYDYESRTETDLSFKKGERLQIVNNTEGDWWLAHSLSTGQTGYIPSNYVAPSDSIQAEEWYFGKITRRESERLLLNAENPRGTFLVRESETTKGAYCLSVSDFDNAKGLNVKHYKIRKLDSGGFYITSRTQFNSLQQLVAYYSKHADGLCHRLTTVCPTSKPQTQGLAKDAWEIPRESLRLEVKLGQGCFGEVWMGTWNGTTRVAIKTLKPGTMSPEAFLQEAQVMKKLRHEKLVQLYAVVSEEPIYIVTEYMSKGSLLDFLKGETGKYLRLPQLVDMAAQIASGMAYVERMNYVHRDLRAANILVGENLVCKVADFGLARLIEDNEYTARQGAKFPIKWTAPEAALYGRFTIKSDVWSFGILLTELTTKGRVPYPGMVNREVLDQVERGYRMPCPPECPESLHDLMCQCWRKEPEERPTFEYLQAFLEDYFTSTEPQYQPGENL
Fibroblast growth factor receptor 2 (Homo sapiens), sequence (P21802 22-821 limits assumed): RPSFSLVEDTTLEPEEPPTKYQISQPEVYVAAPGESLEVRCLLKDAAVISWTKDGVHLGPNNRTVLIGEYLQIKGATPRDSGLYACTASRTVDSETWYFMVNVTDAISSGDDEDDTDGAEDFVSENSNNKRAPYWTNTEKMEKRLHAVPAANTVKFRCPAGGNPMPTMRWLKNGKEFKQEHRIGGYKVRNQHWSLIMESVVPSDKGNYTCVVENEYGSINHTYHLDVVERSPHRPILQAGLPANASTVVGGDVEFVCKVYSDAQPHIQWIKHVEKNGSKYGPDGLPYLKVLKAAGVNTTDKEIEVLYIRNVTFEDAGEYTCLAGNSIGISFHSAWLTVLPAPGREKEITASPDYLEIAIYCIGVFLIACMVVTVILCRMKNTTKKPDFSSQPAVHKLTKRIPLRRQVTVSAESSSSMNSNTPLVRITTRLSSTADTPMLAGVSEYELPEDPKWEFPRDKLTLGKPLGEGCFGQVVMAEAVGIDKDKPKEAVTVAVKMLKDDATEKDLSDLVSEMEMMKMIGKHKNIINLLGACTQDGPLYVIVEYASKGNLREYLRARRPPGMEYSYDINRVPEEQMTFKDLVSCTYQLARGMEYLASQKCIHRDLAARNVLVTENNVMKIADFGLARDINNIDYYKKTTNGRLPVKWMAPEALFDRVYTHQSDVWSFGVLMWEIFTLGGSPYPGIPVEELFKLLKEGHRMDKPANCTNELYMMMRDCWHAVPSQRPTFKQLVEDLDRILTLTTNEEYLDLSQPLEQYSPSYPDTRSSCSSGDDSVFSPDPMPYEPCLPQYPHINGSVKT

For orientation: inhibition means the drop in the measured response relative to a control, in per cent. For orientation: EC50 means the concentration giving half of the maximal effect. Read a low EC50 as greater potency. On to `COC(=O)c1cc2cc(NCc3cc(NC(=O)c4ccc(CN5CCN(C)CC5)cc4)ccc3C)cnc2[nH]1`, for which the inhibition in experiment [1] came out at 93%; in experiment [2], 21%; in experiment [3], 73%; in experiment [4], 81%; in experiment [5] it was 60%; in experiment [6], 85%. Also, the EC50 in the experiment with HepG2 and in the experiment with HUVEC was more than 1000 nM throughout.
As for `COC(=O)c1cc2cc(NCc3cc(NC(=O)c4cncc(C(F)(F)F)c4)ccc3C)cnc2[nH]1`, the inhibition was found to be 101% in experiment [1]; 13% in experiment [2]; 73% in experiment [3]; 78% in experiment [4]; 73% in experiment [5]; 93% in experiment [6]. The EC50 was determined as 963 nM in the experiment on HepG2 and 390 nM in the experiment on HUVEC.
Take `COC(=O)c1cc2cc(NCc3cc(NC(=O)c4ccnc(C)c4)ccc3C)cnc2[nH]1`: the inhibition is 51% in experiment [1]; -6% in experiment [2]; 46% in experiment [3]; 49% in experiment [4]; 85% in experiment [5]; 82% in experiment [6]. Also, the EC50 is more than 1000 nM with HepG2 and 986 nM in the experiment with HUVEC.
In the case of `COC(=O)c1cc2cc(NC(=O)c3cc(NC(=O)c4ccc(CN5CCC(N(C)C)C5)c(C(F)(F)F)c4)ccc3C)cnc2[nH]1` (stereo unspecified), the inhibition is 100% in experiment [1]; 94% in experiment [2]; 93% in experiment [3]; 76% in experiment [4]; 46% in experiment [5]; 94% in experiment [6]. Also, the EC50 in the experiment with HepG2 is 977 nM; with HUVEC, 631 nM.
On to `COC(=O)c1cc2cc(NC(=O)c3cc(NC(=O)c4ccc(CN5CCN(C)CC5)cc4)ccc3C)cnc2[nH]1`, for which the inhibition came to 94% in experiment [1]; 8% in experiment [2]; 97% in experiment [3]; 65% in experiment [4]; 71% in experiment [5]; 41% in experiment [6]. The EC50 with HepG2 and with HUVEC was more than 1000 nM each time.
`COC(=O)c1cc2cc(NCc3cc(NC(=O)c4cccc(C(C)C)c4)ccc3C)cnc2[nH]1`: the inhibition in experiment [1] was 99%; in experiment [2] it was 15%; in experiment [3] it was 32%; in experiment [4], 52%; in experiment [5], 24%; in experiment [6], 61%.
In the case of `COC(=O)c1cc2cc(NCc3cc(NC(=O)c4cccc(C)c4)ccc3C)cnc2[nH]1`, the inhibition in experiment [1] was determined as 84%; in experiment [2], 6%; in experiment [3] it was 72%; in experiment [4], 32%; in experiment [5], 74%; in experiment [6], 87%.
Take `COC(=O)c1cc2cc(NCc3cc(NC(=O)c4ccc(C(F)(F)F)nc4)ccc3C)cnc2[nH]1`: the inhibition in experiment [1] was 39%; in experiment [2], -7%; in experiment [3] it was 0%; in experiment [4] it was 81%; in experiment [5] it was 50%; in experiment [6] it was 76%.
Turning to `Cc1ccc(NC(=O)c2ccc(CN3CCN(C)CC3)cc2)cc1CNc1cnc2[nH]c(C(=O)O)cc2c1`, the inhibition stood at 75% in experiment [1]; 14% in experiment [2]; 72% in experiment [3]; 96% in experiment [4]; 12% in experiment [5]; 79% in experiment [6].
Take `COC(=O)c1cc2cc(CNc3cc(NC(=O)c4ccc(CN5CCN(C)CC5)cc4)ccc3C)cnc2[nH]1`: the inhibition in experiment [1] was determined as 47%; in experiment [2], 8%; in experiment [3], 46%; in experiment [4], 63%; in experiment [5], 17%; in experiment [6], 88%.
In the case of `CC(=O)c1cc2cc(NCc3cc(NC(=O)c4ccc(CN5CCN(C)CC5)cc4)ccc3C)cnc2[nH]1`, the inhibition in experiment [1] is 87%; in experiment [2], 5%; in experiment [3], 88%; in experiment [4] it was 99%; in experiment [5] it was 35%; in experiment [6], 96%.

The values are drawn from ChEMBL document CHEMBL3808348, “Rational Design, Synthesis, and Biological Evaluation of 7-Azaindole Derivatives as Potent Focused Multi-Targeted Kinase Inhibitors” (J Med Chem, 2016).
